Source: US12268702B2, “Antitumor pharmaceutical composition comprising azvudine and chemotherapeutic agent” (HENAN GENUINE BIOTECH CO., LTD., priority 2023, dated 2025)

Tested on: A2058 xenograft tumor model
Assay: Human melanoma A2058 cell subcutaneous xenograft tumor model
Assay type: in vivo
Settings: azvudine 1 mg/kg, dacarbazine 60 mg/kg, combination 1 + 60 mg/kg; for Tumor volume (mm^3) on the 14th day: 14th day of administration
Protocol: Human melanoma cells A2058 (Cat. No.: CRL-11147) were cultured in vitro as a monolayer in DMEM medium containing 10% fetal bovine serum, 100 U/mL penicillin and 100 μg/mL streptomycin, in a 37° C. and 5% CO2 incubator. The cells were routinely digested with trypsin-EDTA and passaged twice a week. When the cell saturation reached 80%-90% and the cell number achieved the requirement, the cells were collected, counted and inoculated.
0.2 mL (5×10^6) of A2058 cells were added with Matrigel, and the mixture was subcutaneously inoculated on the right back of each mouse. The grouping administration was started when the average tumor volume reached about 136 mm^3.

[1] = based on tumor volume, 14th day

What does the source list for CN(C)/N=N/c1[nH]cnc1C(N)=O [Dacarbazine, dacarbazine]?
Tumor volume (mm^3) on the 14th day: 1,255 ± 186 mm^3; Tumor volume (mm^3) on the 14th day (listed as dacarbazine): 1255 mm^3; T/C (%) [1]: 44.77%; TGI (%) [1]: 56.74%
